Assay [1] deals with T1, Tyrosine-protein phosphatase non-receptor type 1 (Homo sapiens, UniProt P18031).
T1 sequence (P18031 whole entry): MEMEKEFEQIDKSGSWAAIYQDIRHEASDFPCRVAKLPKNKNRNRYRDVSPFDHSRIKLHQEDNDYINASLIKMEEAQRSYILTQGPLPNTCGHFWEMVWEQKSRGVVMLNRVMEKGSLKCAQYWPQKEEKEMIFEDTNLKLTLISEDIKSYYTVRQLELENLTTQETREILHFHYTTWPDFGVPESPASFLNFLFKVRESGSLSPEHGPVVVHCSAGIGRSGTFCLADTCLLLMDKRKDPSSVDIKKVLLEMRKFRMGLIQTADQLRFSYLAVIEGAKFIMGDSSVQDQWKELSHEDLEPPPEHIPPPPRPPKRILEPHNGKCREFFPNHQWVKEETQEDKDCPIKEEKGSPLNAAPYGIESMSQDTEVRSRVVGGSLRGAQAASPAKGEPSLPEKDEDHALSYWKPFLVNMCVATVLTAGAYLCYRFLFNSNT
As to the kind of experiment: Inhibition of PTP1B by pNPP assay.

Assay [2] deals with T2, Tyrosine-protein phosphatase non-receptor type 2 (Homo sapiens, UniProt P17706).
T2 sequence (P17706 whole entry): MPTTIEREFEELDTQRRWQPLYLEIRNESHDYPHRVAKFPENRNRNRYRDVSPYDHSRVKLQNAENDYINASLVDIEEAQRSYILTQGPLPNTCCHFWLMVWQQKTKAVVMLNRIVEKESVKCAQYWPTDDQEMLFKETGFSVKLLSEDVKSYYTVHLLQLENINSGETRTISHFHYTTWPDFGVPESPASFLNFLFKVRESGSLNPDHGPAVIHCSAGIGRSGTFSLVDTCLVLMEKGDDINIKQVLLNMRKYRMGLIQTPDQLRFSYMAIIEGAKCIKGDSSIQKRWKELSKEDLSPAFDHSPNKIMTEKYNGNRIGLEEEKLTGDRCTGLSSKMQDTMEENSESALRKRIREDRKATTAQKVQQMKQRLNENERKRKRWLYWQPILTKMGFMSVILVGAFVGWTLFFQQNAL
The experiment in a line: Inhibition of TCPTP by pNPP assay.

Structures are written as SMILES.

What is called IC50 is the point on the concentration scale where inhibition reaches its midpoint. A lower IC50 goes with higher potency.

On to `C=C1CC[C@]2(C)[C@H]3CC=C4[C@@H]5CC(C)(C)CC[C@]5(C(=O)O)CC[C@@]4(C)[C@]3(C)CC[C@H]2C1(C)C`, for which the figures for the IC50 in assay [1] and in assay [2] were 2850 nM and 2530 nM, respectively. On the same counts, the results for `CC1(C)CC[C@]2(CCCCC(=O)NC(Cc3ccc([N+](=O)[O-])cc3)C(=O)O)CC[C@]3(C)C(=CC[C@@H]4[C@@]5(C)CC[C@H](O)C(C)(C)[C@@H]5CC[C@]43C)[C@@H]2C1` (stereo not given in full) are 450 nM and 360 nM. The like results for `CC1(C)CC[C@]2(CCCCC(=O)N[C@@H](Cc3c[nH]c4ccccc34)C(=O)O)CC[C@]3(C)C(=CC[C@@H]4[C@@]5(C)CC[C@H](O)C(C)(C)[C@@H]5CC[C@]43C)[C@@H]2C1` were, in that order, 590 nM and 590 nM.

Regarding `CC1(C)CC[C@]2(C(=O)O)CC[C@]3(C)C(=CC[C@@H]4[C@@]5(C)CC[C@H](OC(=O)C(=O)O)C(C)(C)[C@@H]5CC[C@]43C)[C@@H]2C1`, the IC50 is 2860 nM in assay [1] and 4550 nM in assay [2]. As to `CC1(C)CC[C@]2(C(=O)O)CC[C@]3(C)C(=CC[C@@H]4[C@@]5(C)CC[C@H](OCc6cccc(C(=O)O)c6)C(C)(C)[C@@H]5CC[C@]43C)[C@@H]2C1`, the IC50 in assay [1] is 620 nM; in assay [2], 490 nM. The like results for `CC1(C)CC[C@]2(CCCCC(=O)N[C@@H](Cc3cnc[nH]3)C(=O)O)CC[C@]3(C)C(=CC[C@@H]4[C@@]5(C)CC[C@H](O)C(C)(C)[C@@H]5CC[C@]43C)[C@@H]2C1` were, in that order, 4620 nM and 4310 nM.

For `CC1(C)CC[C@]2(CCCCC(=O)NC(Cc3ccc(F)cc3)C(=O)O)CC[C@]3(C)C(=CC[C@@H]4[C@@]5(C)CC[C@H](O)C(C)(C)[C@@H]5CC[C@]43C)[C@@H]2C1` (stereo not given in full), the IC50 is 570 nM in assay [1] and 650 nM in assay [2]. For the compound `CC1(C)CC[C@]2(C(=O)Nc3ccc(C(=O)O)cc3)CC[C@]3(C)C(=CC[C@@H]4[C@@]5(C)CC[C@H](O)C(C)(C)[C@@H]5CC[C@]43C)[C@@H]2C1`, in assay [1], it took 3190 nM to reach half-maximal inhibition (IC50). Take `CC1(C)CC[C@]2(CCCCCCCCCCC(=O)O)CC[C@]3(C)C(=CC[C@@H]4[C@@]5(C)CC[C@H](O)C(C)(C)[C@@H]5CC[C@]43C)[C@@H]2C1`: the IC50 worked out at 720 nM in assay [1] and 630 nM in assay [2]. On the same counts, the results for `Cc1ccccc1CC(NC(=O)CCCC[C@]12CCC(C)(C)C[C@H]1C1=CC[C@@H]3[C@@]4(C)CC[C@H](O)C(C)(C)[C@@H]4CC[C@@]3(C)[C@]1(C)CC2)C(=O)O` (stereo not given in full) are 550 nM and 500 nM. On the same counts, the results for `COc1ccccc1CC(NC(=O)CCCC[C@]12CCC(C)(C)C[C@H]1C1=CC[C@@H]3[C@@]4(C)CC[C@H](O)C(C)(C)[C@@H]4CC[C@@]3(C)[C@]1(C)CC2)C(=O)O` (stereo not given in full) are 530 nM and 450 nM. On the same counts, the results for `CC1(C)CC[C@]2(CCCCC(=O)NC(Cc3ccccc3Cl)C(=O)O)CC[C@]3(C)C(=CC[C@@H]4[C@@]5(C)CC[C@H](O)C(C)(C)[C@@H]5CC[C@]43C)[C@@H]2C1` (stereo not given in full) are 560 nM and 550 nM. As to `CC1(C)CC[C@]2(CCCCCCC(=O)O)CC[C@]3(C)C(=CC[C@@H]4[C@@]5(C)CC[C@H](O)C(C)(C)[C@@H]5CC[C@]43C)[C@@H]2C1`, the IC50 amounted to 880 nM in assay [1] and 850 nM in assay [2]. The like results for `CC1(C)CC[C@]2(C(=O)O)CC[C@]3(C)C(=CC[C@@H]4[C@@]5(C)CC[C@H](OC(=O)c6ccccc6C(=O)O)C(C)(C)[C@@H]5CC[C@]43C)[C@@H]2C1` were, in that order, 4580 nM and 5000 nM. The like results for `CC1(C)CC[C@]2(CCCCCCCCCCCCC(=O)O)CC[C@]3(C)C(=CC[C@@H]4[C@@]5(C)CC[C@H](O)C(C)(C)[C@@H]5CC[C@]43C)[C@@H]2C1` were, in that order, 590 nM and 530 nM. The compound `CC1(C)CC[C@]2(C(=O)NCc3ccccc3)CC[C@]3(C)C(=CC[C@@H]4[C@@]5(C)CC[C@H](O)C(C)(C)[C@@H]5CC[C@]43C)[C@@H]2C1` gave an IC50 in assay [1] of 8100 nM. As to `CC1(C)CC[C@]2(C(=O)O)CC[C@]3(C)C(=CC[C@@H]4[C@@]5(C)CC[C@H](OC(=O)CCC(=O)O)C(C)(C)[C@@H]5CC[C@]43C)[C@@H]2C1` [OLEANOLIC ACID 3-O-SUCCINATE], the IC50 came out at 5970 nM in assay [1] and 5360 nM in assay [2]. Regarding `CNC(=O)[C@]12CCC(C)(C)C[C@H]1C1=CC[C@@H]3[C@@]4(C)CC[C@H](O)C(C)(C)[C@@H]4CC[C@@]3(C)[C@]1(C)CC2`, 9200 nM corresponded to half-maximal inhibition in assay [1] (IC50). Take `CC1(C)CC[C@]2(C)CC[C@]3(C)[C@H](CC[C@@H]4[C@@]5(C)CC[C@H](O)C(C)(C)[C@@H]5CC[C@]43C)[C@@H]2C1`: the IC50 in assay [1] and in assay [2] was above 20000 nM throughout. With `CC1(C)CC[C@]2(C(=O)O)CC[C@]3(C)C(=CC[C@@H]4[C@@]5(C)CCC(=O)C(C)(C)[C@@H]5CC[C@]43C)[C@@H]2C1` [OLEANONIC ACID], the IC50 was determined as 5320 nM in assay [1] and 5630 nM in assay [2].

For `CC1(C)CC[C@]2(C(=O)O)CC[C@]3(C)C(=CC[C@@H]4[C@@]5(C)CCCC(C)(C)[C@@H]5CC[C@]43C)[C@@H]2C1`, the IC50 came to 2610 nM in assay [1] and 3000 nM in assay [2]. On the same counts, the results for `COc1cccc(CC(NC(=O)CCCC[C@]23CCC(C)(C)C[C@H]2C2=CC[C@@H]4[C@@]5(C)CC[C@H](O)C(C)(C)[C@@H]5CC[C@@]4(C)[C@]2(C)CC3)C(=O)O)c1OC` (stereo not given in full) are 660 nM and 750 nM.

Regarding `CC1(C)[C@@H](O)CC[C@]2(C)[C@H]3C(=O)C=C4[C@@H]5C[C@@](C)(C(=O)O)CC[C@]5(C)CC[C@@]4(C)[C@]3(C)CC[C@@H]12` [ENOXOLONE], the IC50 in assay [2] is above 20000 nM. For the compound `C[C@H]1[C@H](C)CC[C@]2(C)CC[C@]3(C)C(=CC(=O)[C@@H]4[C@@]5(C)CC[C@@H](O)[C@](C)(C(=O)O)[C@@H]5CC[C@]43C)[C@H]12` [11-KETO BOSWELLIC ACID], the IC50 in assay [1] amounted to 8040 nM; in assay [2], 9450 nM. On the same counts, the results for `COc1cc(CC(NC(=O)CCCC[C@]23CCC(C)(C)C[C@H]2C2=CC[C@@H]4[C@@]5(C)CC[C@H](O)C(C)(C)[C@@H]5CC[C@@]4(C)[C@]2(C)CC3)C(=O)O)cc(OC)c1` (stereo not given in full) are 630 nM and 850 nM. Take `CC1(C)CC[C@]2(C(=O)NCC(=O)O)CC[C@]3(C)C(=CC[C@@H]4[C@@]5(C)CC[C@H](O)C(C)(C)[C@@H]5CC[C@]43C)[C@@H]2C1`: it took 15400 nM to reach half-maximal inhibition in assay [1] (IC50). Same read-out and setting: under `CC1(C)CC[C@]2(C(=O)OCc3ccccc3)CC[C@]3(C)C(=CC[C@@H]4[C@@]5(C)CC[C@H](O)C(C)(C)[C@@H]5CC[C@]43C)[C@@H]2C1` stands 8610 nM; under `COC(=O)[C@]12CCC(C)(C)C[C@H]1C1=CC[C@@H]3[C@@]4(C)CC[C@H](O)C(C)(C)[C@@H]4CC[C@@]3(C)[C@]1(C)CC2` [METHYL OLEANOLATE], 4440 nM. `CC1(C)CC[C@]2(C(=O)O)CC[C@]3(C)C(=CC[C@@H]4[C@@]5(C)CC[C@H](OCc6ccccc6)C(C)(C)[C@@H]5CC[C@]43C)[C@@H]2C1`: the IC50 in assay [1] was 2670 nM; in assay [2], 2750 nM. The like results for `CCOC(=O)C(=O)O[C@H]1CC[C@]2(C)[C@H]3CC=C4[C@@H]5CC(C)(C)CC[C@]5(C(=O)O)CC[C@@]4(C)[C@]3(C)CC[C@H]2C1(C)C` were, in that order, 2890 nM and 3660 nM.

For `O=C(O)C(=O)c1ccc(OCc2ccc(COc3ccc(C(=O)C(=O)O)cc3)cc2)cc1`, the IC50 worked out at 5730 nM in assay [1] and 5350 nM in assay [2]. With `Cc1ccc(CC(NC(=O)CCCC[C@]23CCC(C)(C)C[C@H]2C2=CC[C@@H]4[C@@]5(C)CC[C@H](O)C(C)(C)[C@@H]5CC[C@@]4(C)[C@]2(C)CC3)C(=O)O)cc1` (stereo not given in full), the IC50 in assay [1] stood at 650 nM; in assay [2], 660 nM.

Turning to `CC1(C)CC[C@]2(CCCCC(=O)NC(Cc3ccc(Cl)cc3)C(=O)O)CC[C@]3(C)C(=CC[C@@H]4[C@@]5(C)CC[C@H](O)C(C)(C)[C@@H]5CC[C@]43C)[C@@H]2C1` (stereo not given in full), the half-inhibitory concentration (IC50) in assay [1] is 610 nM; in assay [2] it was 480 nM.

For the compound `COc1cccc(CC(NC(=O)CCCC[C@]23CCC(C)(C)C[C@H]2C2=CC[C@@H]4[C@@]5(C)CC[C@H](O)C(C)(C)[C@@H]5CC[C@@]4(C)[C@]2(C)CC3)C(=O)O)c1` (stereo not given in full), the IC50 in assay [1] and in assay [2] was 520 nM in each case. As for `CC1(C)CC[C@]2(C(N)=O)CC[C@]3(C)C(=CC[C@@H]4[C@@]5(C)CC[C@H](O)C(C)(C)[C@@H]5CC[C@]43C)[C@@H]2C1`, it took 4760 nM to reach half-maximal inhibition in assay [1] (IC50). This counts as single-digit micromolar. As to `C[C@H]1[C@H](C)CC[C@]2(C(=O)O)CC[C@]3(C)C(=CC[C@@H]4[C@@]5(C)C[C@@H](O)[C@H](O)[C@@](C)(CO)[C@@H]5[C@H](O)C[C@]43C)[C@H]12` [MADECASSIC ACID], the values for the IC50 in assay [1] and in assay [2] were 12400 nM and above 20000 nM, respectively. Compound `CC1(C)CC[C@]2(C(=O)N[C@@H](CCC(=O)O)C(=O)O)CC[C@]3(C)C(=CC[C@@H]4[C@@]5(C)CC[C@H](O)C(C)(C)[C@@H]5CC[C@]43C)[C@@H]2C1` returned an IC50 in assay [1] of 16400 nM.

Values taken from ChEMBL document CHEMBL1151785, “Oleanolic acid and its derivatives: new inhibitor of protein tyrosine phosphatase 1B with cellular activities” (Bioorg Med Chem, 2008).
